# How the values were obtained:
# [1] = Inhibition of LAG-3-MHCII (unknown origin) interaction incubated for 2 hrs by TR-FRET assay; set-up: species or system Homo sapiens
# [2] = Inhibition of LAG-3/FGL1 (unknown origin) interaction incubated for 2 hrs by TR-FRET assay; set-up: species or system Homo sapiens
# [3] = (§1) Inhibition of LAG-3-MHCII interaction in human Jurkat T cells expressing human LAG-3/luciferase reporter co-cultured with MHCII antigen presenting cells assessed as increase in luminescence by Bio-Glo reagent based assay; assay type: cell-based
# Jurkat T = assay: as §1; assay type: cell-based
# Homo sapiens = species on record: Homo sapiens; assay: Inhibition of LAG-3-MHCII (unknown origin) interaction at 10 to 30 uM incubated for 2 hrs by TR-FRET assay relative to control; settings: dose 10-30 µM
# [4] = Inhibition of LAG-3/FGL1 (unknown origin) interaction by ELISA analysis; set-up: species or system Homo sapiens
SMILES,IC50 [1],IC50 [2],IC50 [3],inhibition (Homo sapiens),IC50 [4],inhibition (Jurkat T)
Cc1cc(C(=O)COc2ccc(N3CCCC3=O)cc2)c(C)n1C1CC1,17.2 µM,20.4 µM,–,–,–,–
Cc1ccc(-n2c(C)cc(C(=O)COc3ccc(C(N)=O)cc3)c2C)cc1,26.9 µM,29.4 µM,–,–,–,–
Cc1cc(C(=O)COc2ccccc2C(=O)Nc2ccccc2)c(C)n1CC1CCCO1 (stereo not drawn),18.4 µM,14.2 µM,–,–,–,–
CCCn1c(C)cc(C(=O)COc2ccccc2NC(C)=O)c1C,> 50 µM,> 50 µM,–,–,–,–
CC(=O)Nc1cccc(OCC(=O)c2cc(C)n(-c3ccc(C)c(C)c3)c2C)c1,31.4 µM,25.5 µM,–,–,–,–
CC(=O)Nc1ccc(OCC(=O)c2cc(C)n(-c3ccc(Cl)c(Cl)c3)c2C)cc1,11.2 µM,10.3 µM,–,–,–,–
Cc1ccc(-n2c(C)cc(C(=O)COc3ccc(NC(=O)c4ccc(C(C)(C)C)cc4)cc3)c2C)cc1,19.3 µM,18.2 µM,–,–,–,–
CC(=O)Nc1ccccc1OCC(=O)c1cc(C)n(CCc2ccc(F)cc2)c1C,28.4 µM,32.7 µM,–,–,–,–
COCCCn1c(C)cc(C(=O)COc2ccc(NC(C)=O)cc2)c1C,> 50 µM,> 50 µM,–,–,–,–
CC(=O)Nc1ccc(OCC(=O)c2cc(C)n(-c3ccc(OC(F)F)cc3)c2C)cc1,12.4 µM,16.5 µM,–,–,–,–
CC(=O)Nc1ccc(OCC(=O)c2cc(C)n(C(C)C)c2C)cc1,> 50 µM,> 50 µM,–,–,–,–
Cc1cc(C(=O)COc2ccc(C(N)=O)cc2)c(C)n1C,> 50 µM,> 50 µM,–,–,–,–
Cc1cc(C(=O)COc2ccccc2C(=O)Nc2ccccc2)c(C)[nH]1,> 50 µM,> 50 µM,–,–,–,–
Cc1cc(C(=O)COc2ccc(C(N)=O)cc2)c(C)n1CCc1ccc(F)cc1,18.3 µM,22.4 µM,–,–,–,–

# The next lines start with results.
IC50 [1],IC50 [2],IC50 [3],inhibition (Homo sapiens),IC50 [4],SMILES,inhibition (Jurkat T)
18.3 µM,20.4 µM,–,–,–,CC(=O)Nc1ccc(OCC(=O)c2cc(C)n(Cc3ccccc3)c2C)cc1,–
> 50 µM,> 50 µM,–,–,–,CCCn1c(C)cc(C(=O)COc2ccc(NC(C)=O)cc2)c1C,–
9.38 µM,9.94 µM,–,–,–,Cc1cc(C(=O)COc2ccc(NC(=O)c3ccccc3)cc2)c(C)n1Cc1ccco1,–
> 50 µM,> 50 µM,–,–,–,C=CCn1c(C)cc(C(=O)COc2ccc(NC(=O)c3cccc([N+](=O)[O-])c3)cc2)c1C,–
> 50 µM,> 50 µM,–,–,–,C=CCn1c(C)cc(C(=O)COc2ccccc2C(=O)Nc2ccccc2)c1C,–
20.4 µM,28.7 µM,–,–,–,CCC(=O)c1ccc(OCC(=O)c2cc(C)n(Cc3ccco3)c2C)cc1,–
4.21 µM,6.52 µM,6.95 µM,–,–,Cc1cc(C(=O)COc2ccc(NC(=O)c3ccco3)cc2)c(C)n1Cc1ccccc1,Dose-Dependent Effect
14.8 µM,16.7 µM,–,> 90%,18.5 µM,Cc1cc(C(=O)COc2ccc(NC(=O)c3ccco3)cc2)c(C)n1C,–
28.4 µM,21.4 µM,–,–,–,CC(=O)Nc1ccc(OCC(=O)c2cc(C)n(CCc3ccc(F)cc3)c2C)cc1,–
21.3 µM,29.4 µM,–,–,–,CC(=O)Nc1ccc(OCC(=O)c2cc(C)n(-c3ccccc3F)c2C)cc1,–
23.4 µM,28.5 µM,–,–,–,CC(=O)Nc1ccc(OCC(=O)c2cc(C)n(CCc3ccccc3)c2C)cc1,–
8.36 µM,13.7 µM,–,–,–,Cc1cc(C(=O)COc2ccc(NC(=O)c3ccco3)cc2)c(C)n1-c1ccccc1,–
25.7 µM,35.4 µM,–,–,–,COc1ccccc1C(=O)Nc1ccc(OCC(=O)c2cc(C)n(C)c2C)cc1,–
